Source: patent publication EP3189850A1, “LIVER TARGETING OF CYCLIC PRES-DERIVED PEPTIDES OF HBV” (Ruprecht-Karls-Universität Heidelberg, priority 2015, dated 2017)
Bridge positions count the residues as written; N and C are the ends. Square brackets hold non-standard residues; d marks the D form. Ends that are not written are not given here. * marks the point of attachment. Myristoyl = CCCCCCCCCCCCCC(=O)*

Tests used:
[1] = Biodistribution and γ-camera imaging of the 125I-labeled peptide (Figure 4); assay type: in vivo; settings: γ-camera / biodistribution in NMRI mice
[2] = target: T1, NTCP (Mus musculus, UniProt O08705); experiment: Scintigraphic imaging (125I) and MicroPET (68Ga) of labelled peptides with and without excess of Myrcludex B (Figure 3); assay type: in vivo; settings: healthy mice; labelled peptide with and without excess of Myrcludex B; 20 and 120 min p.i.
T1 construct: from tissue; host or cells: liver of healthy mice, in vivo imaging
T1 sequence (O08705 1-362): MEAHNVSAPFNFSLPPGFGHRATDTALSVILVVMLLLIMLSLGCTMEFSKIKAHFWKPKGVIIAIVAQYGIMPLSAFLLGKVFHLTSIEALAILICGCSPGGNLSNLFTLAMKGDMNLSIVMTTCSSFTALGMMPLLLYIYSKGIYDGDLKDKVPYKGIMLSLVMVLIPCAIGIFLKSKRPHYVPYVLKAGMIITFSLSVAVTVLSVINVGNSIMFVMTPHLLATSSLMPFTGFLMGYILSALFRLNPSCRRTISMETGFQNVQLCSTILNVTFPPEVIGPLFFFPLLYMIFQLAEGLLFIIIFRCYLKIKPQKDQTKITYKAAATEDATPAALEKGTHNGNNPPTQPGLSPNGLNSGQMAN
Description: Ca. 1 mL of [^68Ga]Ga^3+ eluate (ca. 600-800 MBq) was added to a mixture of 20 µL of a 1mM solution of compound xy in DMSO and 10 µL of saturated solution of ascorbic acid in water. The pH of the resulting mixture was adjusted to 3.5-4.0 by careful addition of a 2.5 M sodium acetate solution in water. Complexation was achieved by heating to over 95°C for 5-10 minutes under constant stirring. The product was isolated by solid phase extraction with ethanol followed by evaporation. The residue was taken up in 1% bovine serum albumin solution and an appropriate amount (ca. 20-50 MBq) was used for the individual experiment in a volume not exceeding 100 µl. Mice were anesthetized with 1% sevoflurane (Abbott, Wiesbaden, Germany) and images were recorded using an Inveon small animal positron emission tomographic (PET) scanner (Siemens, Knoxville, TN) up to 60 minutes postinjection.

| Substance | elimination via the intestine (time) [1] [h] | liver accumulation [1] | accumulation in the liver [2] |
| --- | --- | --- | --- |
| myr-cyclo-intra[NP^*LGFFPDy] | ≤ 2 | accumulates rapidly in the liver |  |
| myr-cyclo[CNPLGFFPDC]y (Myristoyl-CNPLGFFPDC[dY]; disulfide 1-10; also: 125I-labelled) [cyclo[9-16]myr, myristoylated Cys-HBVpreS9-16-Cys-D-Tyr cyclized via disulfide bridge of the two cysteines] |  |  | NTCP specific accumulation in the liver |
